The results in this text go back to patent publication US8680058B2, “Selectively targeted antimicrobial peptides and the use thereof” (priority 2006, dated 2014).

In brackets after ≈: the same amount, converted by molar mass. No end group written: not given here.

Assay [1] deals with P. aeruginosa ATCC 15692. In words: Time-kill against high-density planktonic P. aeruginosa. The assay is classed as cell-based, Pseudomonas aeruginosa. The procedure:
For evaluation of enhanced activity between G10KHc and tobramycin against high density planktonic cultures, ATCC 15692 were grown overnight were adjusted to ˜1×10^8 cfu/mL in ddH2O (pH 7.4) and exposed to 5 μM tobramycin, 5 μM G10KHc or a combination of both agents (a combination of 5 μM tobramycin (2.34 μg/mL) and 5 μM G10KHc or G10). 10 μL of the treated cultures was rescued by dilution after 24 h and the surviving cfu/mL plated on LB and counted after growth on LB agar.

A further assay deals with P. aeruginosa biofilms. In words: Rotating-disk biofilm reactor, P. aeruginosa biofilm killing. The assay is classed as cell-based, Pseudomonas aeruginosa. As to conditions: 100 μg/mL alone, 4 h or 24 h.
For a further assay, the system named is P. aeruginosa. In words: microbe, parasite or virus in culture. Format: cell-based, Pseudomonas aeruginosa. As to conditions: for MIC: Pseudomonas aeruginosa. Here is the method: 2.3 Antimicrobial Activities. The general antimicrobial activities of G10KHc, G10, and tobramycin against clinical isolates of P. aeruginosa were evaluated by minimum inhibitory concentration (MIC) assay as previously described (Eckert et al., 2006) and shown in Table 5. MICs are reported in μM, though for familiarity, 1 μM tobramycin=0.468 μg/mL. P. aeruginosa were grown to log phase and adjusted to ˜1×10^5 cfu/mL in Mueller-Hinton (MH) broth and added to 96-well plates. Two-fold serial dilutions of peptide were then added to bacteria and the plates incubated for 18-24 hours at 37° C. MIC was determined as the concentration of peptide present in the last clear well (no growth). […] In contrast to tobramycin, G10KHc was also effective against aminoglycoside and multiple-antibiotic resistant P. aeruginosa isolated from CF patients (AGR10, MR15). Additionally, as mucoid P. aeruginosa are often associated with reduced susceptibility to antimicrobial agents, we were encouraged to find that G10KHc was active against one such strain, PDO300.

In assay [2] the test system is P. aeruginosa ATCC 15692. In words: Time-kill (killing kinetics), P. aeruginosa in LB with 30% mouse serum. The assay is classed as cell-based, Pseudomonas aeruginosa. As to conditions: 10 μM, 1 min to 2 h. Here is the method:
Time-Kill (killing kinetics) experiments were performed essentially as described previously (Eckert et al., 2006). Briefly, P. aeruginosa were grown to log phase and diluted to ˜1×10^5 cfu/mL (moderate density planktonic cultures) in LB with 30% mouse serum (MP Biomedicals) prior to the addition of 10 μM tobramycin, G10 or G10KHc to the cell suspensions. At each time point, 10 μL of the culture was removed and P. aeruginosa cells rescued by dilution in 500 μL LB and kept on ice until plating. Surviving cfu/mL were quantitated after plating on LB agar and incubating overnight at 37° C. under aerobic conditions.

A further assay concerns S. mutans biofilms. In words: Binding of fluorescently labeled genome-derived peptides to S. mutans biofilms. As to conditions: fluorescent label. The arrangement: species or system Streptococcus mutans. The text has this:
The targeting peptide 1903 was obtained by scanning the genomic sequence of S. mutans UA140. The predicted open reading frames (ORFs) of the publicly-available genome were examined and those ORFs that encoded for proteins under 50 amino acids were noted and re-examined after scanning the entire genome. A number of peptides predicted to be encoded by these ORFs were selected, synthesized with fluorescent labels, tested for binding to S. mutans biofilms.

Method for P. aeruginosa biofilms: In this experiment, a rotating-disk biofilm reactor system was used for generating quantitative data on biofilm susceptibility to tobramycin, G10 and G10KHc. The system consisted of a reactor vessel containing 250 mL of diluted trypticase-soy broth (TSB) (1:100) medium. Reactors were inoculated with overnight cultures (1%, v/v). After static overnight growth in TSB, a flow of fresh medium was initiated (dilution rate, 0.7 h^−1). After 24 h in a flow of medium, the polycarbonate chips with attached biofilm bacteria were aseptically removed from the spinning disk and washed three times in ddH2O (pH 7.4) and incubated in 1 mL ddH2O. G10 (100 μg/mL), G10KHc (100 μg/mL), tobramycin (100 μg/mL), or a combination of the two was added as indicated. The chips were then incubated for 4 or 24 h in 24-well tissue culture plates (Falcon no. 353047; Becton Dickinson Labware, Franklin Lakes, N.J.). To estimate the number of viable P. aeruginosa remaining, the disks were placed in 1 mL PBS and the cells were dispersed using a tissue homogenizer (Brinkmann Instruments, Westbury, N.Y.) and the total cfu per chip was determined by serial dilution and plating on LB agar.

Consider `NC[C@H]1O[C@H](O[C@H]2[C@H](O)[C@@H](O[C@H]3O[C@H](CO)[C@@H](O)[C@H](N)[C@H]3O)[C@H](N)C[C@@H]2N)[C@H](N)C[C@@H]1O` [tobramycin], for which the “improvement in bactericidal effect over 5 μM G10 or G10KHc” value in the assay on P. aeruginosa ATCC 15692 [1] (5 μM (2.34 μg/mL), 24 hours, high-density planktonic cells) is 1-2 log10. Further, the “surviving cfu/mL” value in the assay on P. aeruginosa ATCC 15692 [1] (5 μM each agent, 24 h, 1×10^8 cfu/mL culture) is listed as 1×10^7 cfu/mL. Moreover, the “killing effect against P. aeruginosa biofilms” value in the assay with P. aeruginosa biofilms was “very limited killing effects”. The MIC in the assay on P. aeruginosa (ATCC9027, P. aeruginosa ATCC 9027) turned out to be 2.12 µM (≈ 0.991 µg/mL); with P. aeruginosa (ATCC10145, P. aeruginosa ATCC 10145), 1.75 µM (≈ 0.818 µg/mL); in the assay on P. aeruginosa (ATCC15692, P. aeruginosa ATCC 15692) it was 3.05 µM (≈ 1.43 µg/mL); against P. aeruginosa (ATCC27583, P. aeruginosa ATCC 27583), 1.75 µM (≈ 0.818 µg/mL); in the assay with P. aeruginosa (P. aeruginosa AGR10 (aminoglycoside resistant, CF isolate)) it was 55 µM (≈ 25.7 µg/mL); against P. aeruginosa (P. aeruginosa MR15 (multiple-antibiotic resistant, CF isolate)) it was 55 µM (≈ 25.7 µg/mL). For the same molecule, the MIC turned out to be 2.12 µM (≈ 0.991 µg/mL) with P. aeruginosa (P. aeruginosa PAK); 0.4 µM (≈ 0.187 µg/mL) in the assay on P. aeruginosa (P. aeruginosa S40); 0.4 µM (≈ 0.187 µg/mL) with P. aeruginosa (P. aeruginosa S60); 3.5 µM (≈ 1.64 µg/mL) against P. aeruginosa (P. aeruginosa S100); 0.7 µM (≈ 0.327 µg/mL) in the assay with P. aeruginosa (PA14, P. aeruginosa PA14); 2.5 µM (≈ 1.17 µg/mL) against P. aeruginosa (PAO1, P. aeruginosa PAO1).
With “KNLRRIIRKGIHIIKKYG [novispirin G10, KNLRRIIRKGIHIIKKYG]”, the “killing kinetics (in words)” value in the assay on P. aeruginosa ATCC 15692 [2] is given as “ineffective”. Also, in the assay with P. aeruginosa, the MIC range fell in the range of 10 to 60 µM and the “mean MIC” value was determined as 23.4 µM.
Take “NIFEYFLE (synthetic targeting peptide 1903)”: the “binding to S. mutans” value in the assay on S. mutans biofilms is reported as “showed the binding activity to S. mutans”.
